Assay results from US6043385A, “Vitamin D derivatives” (priority 1997, dated 2000).

How the values were obtained:
[1] = target: T1, human VDR (Homo sapiens, UniProt P11473); experiment: Vitamin D receptor activation (VDR), transcription activation assay in COS cells; type: cell-based; conditions: for EC50: COS cells cotransfected with human VDR and VDRE3-luciferase reporter, read-out: VDR act. (ED50, nanomolar); for HTD/VDR: ratio HTDsc (mouse, μg/kg) / VDR ED50 (nanomolar); for TI shift (HTD/VDR of test compound divided by HTD/VDR of calcitriol): vs calcitriol
T1 construct: expressed in transfected cells; host or cells: COS cells, human VDR in pSG5
T1 sequence (P11473 1-427): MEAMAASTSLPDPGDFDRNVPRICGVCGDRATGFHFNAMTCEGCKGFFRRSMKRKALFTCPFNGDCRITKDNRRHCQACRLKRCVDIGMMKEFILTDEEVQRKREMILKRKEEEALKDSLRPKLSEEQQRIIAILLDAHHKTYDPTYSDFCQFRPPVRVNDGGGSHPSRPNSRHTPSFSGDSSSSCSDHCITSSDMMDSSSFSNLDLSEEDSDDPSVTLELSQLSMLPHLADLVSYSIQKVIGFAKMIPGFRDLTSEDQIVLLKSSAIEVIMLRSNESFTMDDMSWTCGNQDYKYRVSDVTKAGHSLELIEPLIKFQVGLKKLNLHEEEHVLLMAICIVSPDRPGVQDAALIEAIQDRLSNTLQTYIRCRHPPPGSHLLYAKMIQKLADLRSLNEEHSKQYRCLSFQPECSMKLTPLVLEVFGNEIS
Source text: 2. Vitamin D receptor activation (VDR)
In order to measure the activation of the vitamin D receptor (VDR) by vitamin D analogs in cells a transcription activation assay was used. COS cells were cotransfected with the human VDR (expressed in pSG5) and a reporter gene containing three response elements (VDRE3) from the rat osteocalcine gene, the thymidine kinase basal promoter, and the luciferase reporter gene, respectively.
TI shift: shift in "therapeutic index", defined as the ratio HTD/VDR of
the test compound divided by the ratio HTD/VDR of calcitriol. These

[2] = test system: Epidermal proliferation in minipigs; experiment: The pig model: epidermal proliferation in minipigs; conditions: for TI (ratio Calc./Eff.): calcemic dose / effective dose, 10080 min; for Calcemic dose / Effective dose: seven days; for Effective dose: dose that increases the normal LI at least 50%
[3] = test system: Epidermal thickening (acanthosis) in hairless mice; experiment: The mouse model: epidermal thickening (acanthosis) in hairless mice; conditions: for ED50: Mus musculus, po, read-out: ED50: dose causing halfmaximal epidermal thickening; for ratio (TI) HTD/ED50 / TI shift (HTD/ED50 of test compound divided by HTD/ED50 of calcitriol): hairless mice, oral; for ratio (TI) HTD/ED50: HTDpo/ED50; for TI shift (HTD/ED50 of test compound divided by HTD/ED50 of calcitriol): vs calcitriol
[4] = as above; conditions: mouse, in vivo, po
[5] = Calcium liability (tolerance test in mice); conditions: mouse, in vivo, sc, daily s.c. for 4 consecutive days, dose without weight loss / with zero weight gain, read-out: HTD sc, mouse (highest tolerated subcutaneous dose)
Source text: 1. Calcium liability (tolerance test in mice):
This test gives a global picture of calcemic liability. Profound changes in calcium homeostasis strongly affect the weight development of the animals. This parameter was used as a primary test for tolerance. Mice (25-30 g body weight) received daily subcutaneous administrations of the vitamin D derivative for 4 consecutive days. Body weight was registered just before and at the end of a […] treatment period. The "highest tolerated dose" (HTDsc) in mice is the dose which results in zero weight gain during this treatment period.
HTDsc: highest tolerated subcutaneous dose (μg/kg) without weight loss

C[C@H](CNC(=O)CC(C)(O)C(F)(F)F)[C@H]1CC[C@H]2/C(=C/C=C3C[C@@H](O)C[C@H](O)C3)CCC[C@]12C (mixture of isomers) [compound B, 1:1 Mixture of (E)--(R)-- and (S)--N--[(1R,3R,20S)-1,3-dihydroxy-20-methyl-19-nor-9,10-seco-pregna-5,7-dien-21-yl]-4,4,4-trifluoro-3-hydroxy-20-methyl-butyramide]
EC50 [1]: 1.7 nM | HTD/VDR [1]: 26.5 | TI shift (HTD/VDR of test compound divided by HTD/VDR of calcitriol) [1]: 139 | TI (ratio Calc./Eff.) [2]: 10 | Calcemic dose [2]: 5 µg/kg | Effective dose [2]: 0.5 µg/kg | ED50 [3]: 80 µg/kg | ratio (TI) HTD/ED50 [3]: 0.25 | TI shift (HTD/ED50 of test compound divided by HTD/ED50 of calcitriol) [3]: 125 | MTD [4]: 20 µg/kg | MTD [5]: 45 µg/kg

C=C1/C(=C/C=C2\CCC[C@]3(C)[C@@H]([C@H](C)CNC(=O)CC(C)(O)C(F)(F)F)CC[C@@H]23)C[C@@H](O)C[C@@H]1O (mixture of isomers) [I, 1:1 Mixture of --[(5E,7E)--(R)-- and --(S)-4,4,4-trifluoro-3-hydroxy-N--[(1S,3R,20S)-1,3-dihydroxy-20-methyl-9,10-seco-pregna-5,7,10(19)-trien-21-yl]-3-methyl-butyramide]
EC50 [1]: 40 nM | HTD/VDR [1]: 3.3 | TI shift (HTD/VDR of test compound divided by HTD/VDR of calcitriol) [1]: 17 | MTD [5]: 130 µg/kg

C[C@H](CNC(=O)C[C@@](C)(O)C(F)(F)F)[C@H]1CCC[C@H]2/C(=C/C=C3C[C@@H](O)C[C@H](O)C3)CCC[C@]12C [F, (E)--(R)--N--[(1R,3R,20S)-1,3-Dihydroxy-17a,20a-dihomo-19-nor-9,10-seco-pregna-5,7-dien-21-yl]-4,4,4-trifluoro-3-hydroxy-3-methyl-butyramide]
EC50 [1]: 0.6 nM | HTD/VDR [1]: 8.3 | TI shift (HTD/VDR of test compound divided by HTD/VDR of calcitriol) [1]: 44 | MTD [5]: 5 µg/kg

C[C@H](CNC(=O)CC(O)(C(F)(F)F)C(F)(F)F)[C@H]1CCC[C@H]2/C(=C/C=C3C[C@@H](O)C[C@H](O)C3)CCC[C@]12C [H, (E)--N--[(1R,3R,20S)-1,3-Dihydroxy-17a,20a-dihomo-19-nor-9,10-seco-pregna-5,7-dien-21-yl]-4,4,4-trifluoro-3-trifluoromethyl-3-hydroxy-butyramide]
EC50 [1]: 0.5 nM | HTD/VDR [1]: 4.6 | TI shift (HTD/VDR of test compound divided by HTD/VDR of calcitriol) [1]: 24 | MTD [5]: 2.3 µg/kg

C[C@H](CNC(=O)C[C@@](C)(O)C(F)(F)F)[C@H]1CC[C@H]2/C(=C/C=C3C[C@@H](O)C[C@H](O)C3)CCC[C@]12C [compound J, E--(R)--N--[(1R,3R,20S)-1,3-Dihydroxy-20-methyl-19-nor-9,10-seco-pregna-5,7-dien-21-yl]-4,4,4-trifluoro-3-hydroxy-3-methyl-butyramide]
EC50 [1]: 2.1 nM | HTD/VDR [1]: 10.5 | TI shift (HTD/VDR of test compound divided by HTD/VDR of calcitriol) [1]: 55 | TI (ratio Calc./Eff.) [2]: 29 | Calcemic dose [2]: 5 µg/kg | Effective dose [2]: 0.17 µg/kg | ED50 [3]: 50 µg/kg | ratio (TI) HTD/ED50 [3]: 0.16 | TI shift (HTD/ED50 of test compound divided by HTD/ED50 of calcitriol) [3]: 80 | MTD [4]: 8 µg/kg | MTD [5]: 22 µg/kg

C=C1/C(=C\C=C2/CCC[C@]3(C)[C@@H]([C@H](C)CCCC(C)(C)O)CC[C@@H]23)C[C@@H](O)C[C@@H]1O [Calcitriol, reference compound]
Calcemic dose [2]: 3 µg/kg | Effective dose [2]: > 22.5 µg/kg | hyperproliferation (in words) ([2]; up to 9 times the dose that induces hypercalcemia): did not induce hyperproliferation even at highly toxic does (9 times the dose that induces hypercalcemia) | ED50 [3]: 500 µg/kg | MTD [4]: 1 µg/kg

C[C@H](CNC(=O)C[C@](C)(O)C(F)(F)F)[C@H]1CCC[C@H]2/C(=C/C=C3C[C@@H](O)C[C@H](O)C3)CCC[C@]12C [G, (E)--(S)--N--[(1R,3R,20S)-1,3-Dihydroxy-17a,20a-dihomo-19-nor-9,10-seco-pregna-5,7-dien-21-yl]-4,4,4-trifluoro-3-hydroxy-3-methyl-butyramide]
EC50 [1]: 0.18 nM | HTD/VDR [1]: 25 | TI shift (HTD/VDR of test compound divided by HTD/VDR of calcitriol) [1]: 132 | MTD [5]: 4.5 µg/kg

C=C1/C(=C\C=C2/CCC[C@]3(C)[C@@H]([C@H](C)CNC(=O)CC(C)(O)C(F)(F)F)CC[C@@H]23)C[C@@H](O)C[C@@H]1O (mixture of isomers) [D, 1:1 Mixture of [(5Z,7E)--(R)-- and (S)--N--[(1S,3R,20S)-1,3-dihydroxy-20-methyl-9,10-seco-pregna-5,7,10(19)-trien-21-yl]-4,4,4-trifluoro-3-hydroxy-3-methyl-butyramide]
EC50 [1]: 1.6 nM | HTD/VDR [1]: 6.3 | TI shift (HTD/VDR of test compound divided by HTD/VDR of calcitriol) [1]: 33 | MTD [5]: 10 µg/kg

C[C@H](CNC(=O)CC(O)(C(F)(F)F)C(F)(F)F)[C@H]1CC[C@H]2/C(=C/C=C3C[C@@H](O)C[C@H](O)C3)CCC[C@]12C [A, (E)--(1R,3R,20S)--N-(1,3-Dihydroxy-20-methyl-19-nor-9,10-seco-pregna-5,7-dien-21-yl)-4,4,4-trifluoro-3-hydroxy-3-trifluoromethyl-butyramide]
EC50 [1]: 0.47 nM | HTD/VDR [1]: 6.4 | TI shift (HTD/VDR of test compound divided by HTD/VDR of calcitriol) [1]: 34 | MTD [5]: 3 µg/kg

C[C@H](CNC(=O)C(C)(C)O)[C@H]1CC[C@H]2/C(=C/C=C3C[C@@H](O)C[C@H](O)C3)CCC[C@]12C [C, (E)--(1R,3R,20S)--N-(1,3-Dihydroxy-20-methyl-19-nor-9,10-seco-pregna-5,7-dien-21-yl)-2-hydroxy-2-methyl-propionamide]
EC50 [1]: 6.4 nM | HTD/VDR [1]: 62.5 | TI shift (HTD/VDR of test compound divided by HTD/VDR of calcitriol) [1]: 329 | MTD [5]: 400 µg/kg

C[C@@H](CNC(=O)CC(C)(O)C(F)(F)F)[C@H]1CC[C@H]2/C(=C/C=C3C[C@@H](O)C[C@H](O)C3)CCC[C@]12C (mixture of isomers) [compound E, 1:1 Mixture of (E)--(R)-- and (S)--N--[(1R,3R,20R)-1,3-dihydroxy-20-methyl-19-nor-9,10-seco-pregna-5,7-dien-21-yl]-4,4,4-trifluoro-3-hydroxy-3-methyl-butyramide]
EC50 [1]: 0.35 nM | HTD/VDR [1]: 2.9 | TI shift (HTD/VDR of test compound divided by HTD/VDR of calcitriol) [1]: 15 | MTD [5]: 1 µg/kg
